# Assay results from patent publication US11186564B2, “Dual NAV1.2/5HT2a inhibitors for treating CNS disorders” (Sunovion Pharmaceuticals Inc., priority 2016, dated 2021).
# Target: T1, recombinant human serotonin receptor 5-HT2A (Homo sapiens, UniProt P28223)
# T1 construct: expressed in transfected cells; method B: loaded with Ca2+ dye
# Assay: 5-HT2A antagonist Ca2+ assay in CHO-K1 cells (method A aequorin luminescence / method B FLIPR fluorescence)
# Assay type: cell-based
# Conditions: antagonist mode vs EC80 of reference agonist, method A or B, read-out: 5HT2A IC50
# Excerpt: The methods utilized to assess the inhibitory activity of compounds on recombinant human serotonin receptor 5-HT2A was based upon previously published approaches [Jerman J C, Brough S J, Gager T, Wood M, Coldwell M C, Smart D, Middlemiss D N. Pharmacological characterisation of human 5-HT2 receptor subtypes. European Journal of Pharmacology 2001 Feb. 23; 414(1):23-30; Le Poul E, Hisada S, Mizuguchi Y, Dupriez V J, Burgeon E, Detheux M. Adaptation of aequorin functional assay to high throughput screening. J Biomolecular Screening 2002 February; 7(1):57-65.] The 5-HT2A receptor signals through Gq-phospholipase signaling cascade, which leads to a transient increase in free intracellular […] concentration. Both 5-HT2A assay methods rely upon monitoring these changes in Ca^2+ concentration.
# In method A [Le Poul E, Hisada S, Mizuguchi Y, Dupriez V J, Burgeon E, Detheux M. (2002)], CHO-K1 cells engineered to stably co-express both recombinant human 5-HT2A and mitochondrial apoaequorin are used. […] For agonist testing, 50 microliters of cell suspension is mixed with 50 microliters of a solution containing test compound or reference agonist in a 96-well standard geometry microtiter plate. The resulting emission of light was recorded using a Hamamatsu Functional Drug Screening System 6000 (FDSS 6000) luminometer. For antagonist testing, 100 microliters of the solution of reference agonist (to yield an agonist concentration, EC80, sufficient to cause the cells to generate an 80% maximal luminescence response in the absence of any antagonist) is injected into the mix of cells and test compound, 15 minutes after the first injection. The resulting emission of light is recorded using Hamamatsu FDSS 6000 luminometer. IC50 values are calculated (from compound concentration dependent inhibition of agonist-induced 5-HT2A-dependent light emission) by non-linear least squares regression of the data (percent inhibition) onto equation (1) above.
# In method B [Jerman J C, Brough S J, Gager T, Wood M, Coldwell M C, Smart D, Middlemiss D N. (2001)], CHO-K1 cells which had been engineered to stably co-express recombinant human 5-HT2A are used in assay done similarly to method A. In method B, the cells are loaded with a fluorogenic Ca^2+ indicator dye by pre-incubation. Addition of the reference agonist serotonin causes a transient increase in fluorescence in a suspension of the loaded cells, which can be detected using the Molecular Devices fluorometric imaging plate reader (FLIPR), a high-throughput platform for 96-well cell-based assays. Addition of test compounds that are 5-HT2A antagonists, prior to the addition of the agonist (to yield an agonist concentration, EC80, sufficient to cause the cells to generate an 80% maximal fluorescence response in the absence of any antagonist), reduces the amount of fluorescence detected by the FLIPR upon agonist addition. IC50 values are calculated (from compound concentration dependent inhibition of agonist-induced 5-HT2A-dependent fluorescence) by non-linear least squares regression of the data (percent inhibition) onto equation (1) above.
# T1 sequence (P28223 whole entry): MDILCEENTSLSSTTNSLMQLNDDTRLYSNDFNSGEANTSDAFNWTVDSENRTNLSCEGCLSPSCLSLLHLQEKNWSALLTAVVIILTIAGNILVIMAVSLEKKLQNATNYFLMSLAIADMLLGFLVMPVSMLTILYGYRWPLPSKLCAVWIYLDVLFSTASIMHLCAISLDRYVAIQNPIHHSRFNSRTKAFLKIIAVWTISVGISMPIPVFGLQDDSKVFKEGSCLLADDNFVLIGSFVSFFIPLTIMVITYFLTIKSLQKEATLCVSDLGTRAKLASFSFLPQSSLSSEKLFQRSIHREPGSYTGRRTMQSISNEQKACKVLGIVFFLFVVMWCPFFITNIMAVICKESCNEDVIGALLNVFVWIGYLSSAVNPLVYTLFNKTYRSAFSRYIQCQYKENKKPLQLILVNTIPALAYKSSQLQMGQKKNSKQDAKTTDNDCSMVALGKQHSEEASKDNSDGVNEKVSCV
row,IC50,Compound
1,2.15 µM,"c1ccc(CN2CCC3(CCc4ccccc4O3)CC2)cc1 [Example 415, 1′-benzylspiro[chromane-2,4′-piperidine]]"
2,4.3 µM,"COc1cccc(O[C@H]2CCN(CC(O)CO[C@H]3CCc4ccccc43)C2)c1 (stereo partly drawn) [Example 39, 1-(((S)-2,3-dihydro-1H-inden-1-yl)oxy)-3-((S)-3-(3-methoxyphenoxy)pyrrolidin-1-yl)propan-2-ol]"
3,7.47 µM,"COc1ccccc1O[C@H]1CCN(CCN2CCc3ccccc3C2=O)C1 [Example 14, (S)-2-(2-(3-(2-methoxyphenoxy)pyrrolidin-1-yl)ethyl)-3,4-dihydroisoquinolin-1(2H)-one]"
4,> 16.7 µM,"OC(COc1ccccc1)CN1C[C@@H]2C[C@H](C1)N(c1ccccc1)C2 (stereo partly drawn) [Example 334, 1-phenoxy-3-((1S,5R)-6-phenyl-3,6-diazabicyclo[3.2.1]octan-3-yl)propan-2-ol]"
5,1.92 µM,"COc1ccc2c(c1)C(CN1CCC(Oc3cccnc3)CC1)CC2 (centres unmarked) [Example 109, 3-((1-((6-methoxy-2,3-dihydro-1H-inden-1-yl)methyl)piperidin-4-yl)oxy)pyridine]"
6,> 10 µM,"c1cnc(OC2CCN(CC3Cc4cccnc4C3)CC2)nc1 (centres unmarked) [Example 157, 6-((4-(pyrimidin-2-yloxy)piperidin-1-yl)methyl)-6,7-dihydro-5H-cyclopenta[b]pyridine]"
7,0.41 µM,"COc1cccc(COC2CCN(CC3CCc4ccc(OC)cc43)CC2)c1 (centres unmarked) [Example 245, 1-((6-methoxy-2,3-dihydro-1H-inden-1-yl)methyl)-4-((3-methoxybenzyl)oxy)piperidine]"
8,0.79 µM,"c1ccc(OCCN2CCC(Oc3ccc4cccnc4c3)CC2)cc1 [Example 231, 7-((1-(2-phenoxyethyl)piperidin-4-yl)oxy)quinoline]"
9,2.3 µM,"Fc1ccc(O[C@@H]2CCN(CC3CCc4cnccc43)C2)cc1 (stereo partly drawn) [Example 1, 5-(((R)-3-(4-fluorophenoxy)pyrrolidin-1-yl)methyl)-6,7-dihydro-5H-cyclopenta[c]pyridine]"
10,> 3.16 µM,"Fc1ccc(OC2COCCN(CC3COc4ccccc43)C2)cc1 (centres unmarked) [Example 278, 4-((2,3-dihydrobenzofuran-3-yl)methyl)-6-(4-fluorophenoxy)-1,4-oxazepane]"
11,> 16.7 µM,"c1ccc(CCN2C[C@@H]3C[C@H](C2)N(c2ccccc2)C3)cc1 [Example 330, (1S,5R)-3-phenethyl-6-phenyl-3,6-diazabicyclo[3.2.1]octane]"
12,> 16.7 µM,"O=C1c2ccccc2CCN1CCN1CC[C@@H](Oc2ccncc2)C1 [Example 29, (R)-2-(2-(3-(pyridin-4-yloxy)pyrrolidin-1-yl)ethyl)-3,4-dihydroisoquinolin-1(2H)-one]"
13,> 16.7 µM,"OC(COC1CCCCC1)CN1CCCC12CCN(c1ccccc1)C2 (centres unmarked) [Example 349, 1-(cyclohexyloxy)-3-(7-phenyl-1,7-diazaspiro[4.4]nonan-1-yl)propan-2-ol]"

row,Compound,IC50
1,"O[C@H](COC1CCCCC1)CN1[C@@H]2CC[C@H]1CN(c1nccs1)C2 [Example 292, (S)-1-(cyclohexyloxy)-3-((1R,5S)-3-(thiazol-2-yl)-3,8-diazabicyclo[3.2.1]octan-8-yl)propan-2-ol]",> 10 µM
2,"COc1ccc2c(c1)C(CN1C[C@H]3CC[C@@H](C1)N3c1ccccc1)CC2 (stereo partly drawn) [Example 296, (1R,5S)-3-((6-methoxy-2,3-dihydro-1H-inden-1-yl)methyl)-8-phenyl-3,8-diazabicyclo[3.2.1]octane]",> 10 µM
3,"Fc1ccc(O[C@@H]2CCN(CC3CCc4cccnc43)C2)cc1 (stereo partly drawn) [Example 7, 7-(((R)-3-(4-fluorophenoxy)pyrrolidin-1-yl)methyl)-6,7-dihydro-5H-cyclopenta[b]pyridine]",1.01 µM
4,"O[C@@H](COC1CCCCC1)CN1C[C@@H]2C[C@H](C1)N(c1ccccc1)C2 [Example 332, (R)-1-(cyclohexyloxy)-3-((1S,5R)-6-phenyl-3,6-diazabicyclo[3.2.1]octan-3-yl)propan-2-ol]",> 16.7 µM
